Test results as given in patent US12043599B2, “Herbicidal compounds” (SYNGENTA PARTICIPATIONS AG, priority 2018, dated 2024).

Experiments:
Format in all cases: in vivo
Settings in all cases: 250 g/h, evaluated after 13 days
Setaria faberi (SETFA) [1] = assay: Pre-emergence herbicidal glasshouse test, percentage damage
Outline: (§1)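 Glasshouse, 24/16 °C, 14 h photoperiod, 65% humidity. Sprayed at 250 g/h pre- (1 d) or post-emergence (8 d); evaluated 13 d after spraying, 5-point damage scale.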

Lolium perenne (LOLPE) [2] = assay: as above
Outline: as §1

[3] = test system: Echinochloa crus-galli (ECHCG); assay: as above
Outline: as §1

Avena fatua (AVEFA) [4] = assay: as above
Outline: as §1

[5] = test system: Alopecurus myosuroides (ALOMY); assay: as above
Outline: as §1

Setaria faberi (SETFA) [6] = assay: Post-emergence herbicidal glasshouse test, percentage damage
Outline: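 Percentage damage was scored 13 days after treatment on a five-point scale (1=0-19% to 5=80-100%). Treatments were post-emergence sprays on 8-day-old wheat, barley and SETFA plants in a glasshouse (24/16 °C day/night, 14 h light, 65% humidity), using acetone/water 50:50 with 0.5% Tween 20 at the stated rates. Wheat additionally received cloquintocet-mexyl safener at 50 g/ha.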

Lolium perenne (LOLPE) [7] = assay: as above
Outline: as §1

[8] = test system: Echinochloa crus-galli (ECHCG); assay: as above
Outline: as §1

Avena fatua (AVEFA) [9] = assay: as above
Outline: as §1

[10] = test system: Alopecurus myosuroides (ALOMY); assay: as above
Outline: as §1

Row | Compound | SETFA PRE percentage damage (five point scale) (Setaria faberi (SETFA) [1]) | LOLPE PRE percentage damage (five point scale) (Lolium perenne (LOLPE) [2]) | ECHCG PRE percentage damage (five point scale) [3] | AVEFA PRE percentage damage (five point scale) (Avena fatua (AVEFA) [4]) | ALOMY PRE percentage damage (five point scale) [5] | SETFA POST percentage damage (five point scale) (Setaria faberi (SETFA) [6]) | LOLPE POST percentage damage (five point scale) (Lolium perenne (LOLPE) [7]) | ECHCG POST percentage damage (five point scale) [8] | AVEFA POST percentage damage (five point scale) (Avena fatua (AVEFA) [9]) | ALOMY POST percentage damage (five point scale) [10]
1 | CC#Cc1cc(C)c(C2C(=O)CC3(CCN(C(=O)c4ccccn4)CC3)CC2=O)c(OC)c1 [Compound A74] | 5 (5=80-100%) | 5 (5=80-100%) | 5 (5=80-100%) | 5 (5=80-100%) | 5 (5=80-100%) | 5 (5=80-100%) | 5 (5=80-100%) | 5 (5=80-100%) | 5 (5=80-100%) | 5 (5=80-100%)
2 | CC#Cc1cc(C)c(C2=C(OC(=O)OC)CC3(CCN(C(=O)c4ccccn4)CC3)CC2=O)c(C)c1 [Compound P24] | 5 (5=80-100%) | 5 (5=80-100%) | 5 (5=80-100%) | 5 (5=80-100%) | 5 (5=80-100%) | 5 (5=80-100%) | 5 (5=80-100%) | 5 (5=80-100%) | 5 (5=80-100%) | 5 (5=80-100%)
3 | CC#Cc1cc(C)c(C2C(=O)CC3(CCN([S+]([O-])C(C)(C)C)CC3)CC2=O)c(C)c1 (stereo not shown) [Compound A85] | 5 (5=80-100%) | 5 (5=80-100%) | 5 (5=80-100%) | 3 (3=40-59%) | 5 (5=80-100%) | 4 (4=60-79%) | 5 (5=80-100%) | 5 (5=80-100%) | 5 (5=80-100%) | 5 (5=80-100%)
4 | CC#Cc1cc(C)c(C2=C(OC(=O)C3CCC3)CC3(CCN(C(=O)C4CCC4)CC3)CC2=O)c(C)c1 [Compound P3] | 5 (5=80-100%) | 5 (5=80-100%) | 5 (5=80-100%) | 5 (5=80-100%) | 5 (5=80-100%) | 5 (5=80-100%) | 5 (5=80-100%) | 5 (5=80-100%) | 5 (5=80-100%) | 5 (5=80-100%)
5 | CC#Cc1cc(C)c(C2C(=O)CC3(CCN(C(=O)NC(=O)c4ccc(Cl)cn4)CC3)CC2=O)c(C)c1 [Compound A162] | 5 (5=80-100%) | 5 (5=80-100%) | 5 (5=80-100%) | 5 (5=80-100%) | 5 (5=80-100%) | 5 (5=80-100%) | 5 (5=80-100%) | 5 (5=80-100%) | 5 (5=80-100%) | 5 (5=80-100%)
6 | CC#Cc1cc(C)c(C2C(=O)CC3(CCN(C(=O)c4cncc(OC)n4)CC3)CC2=O)c(C)c1 [Compound A180] | 5 (5=80-100%) | 5 (5=80-100%) | 5 (5=80-100%) | 5 (5=80-100%) | 5 (5=80-100%) | 5 (5=80-100%) | 5 (5=80-100%) | 5 (5=80-100%) | 5 (5=80-100%) | 5 (5=80-100%)
7 | CC#Cc1cc(C)c(C2C(=O)CC3(CCN(C(=O)COC(C)(C)C)CC3)CC2=O)c(C)c1 [Compound A185] | 5 (5=80-100%) | 5 (5=80-100%) | 5 (5=80-100%) | 4 (4=60-79%) | 5 (5=80-100%) | 5 (5=80-100%) | 5 (5=80-100%) | 5 (5=80-100%) | 5 (5=80-100%) | 5 (5=80-100%)
